Results taken from ChEMBL document CHEMBL3046587, “Baseline sensitivity of Monilinia laxa from Greece to fenhexamid and analysis of fenhexamid-resistant mutants” (Crop Prot, 2013).
Converted amounts (≈) assume the structure as drawn.

What was measured:
Monilinia laxa [1] = assay: Fungitoxicity against moderately fenhexamid resistant Monilinia laxa MF-4 assessed as reduction in mycelial growth measured at 25 degC after 4 days; type: functional, organism-based; settings: MF-4, 96 h
Monilinia laxa [2] = assay: Fungitoxicity against moderately fenhexamid resistant Monilinia laxa MF-7 assessed as reduction in mycelial growth measured at 25 degC after 4 days; type: functional, organism-based; settings: MF-7, 96 h
Monilinia laxa [3] = assay: Fungitoxicity against moderately fenhexamid resistant Monilinia laxa MF-6 assessed as reduction in mycelial growth measured at 25 degC after 4 days; type: functional, organism-based; settings: MF-6, 96 h
Monilinia laxa [4] = assay: Fungitoxicity against highly fenhexamid resistant Monilinia laxa MF-5 assessed as reduction in mycelial growth measured at 25 degC after 4 days; type: functional, organism-based; settings: MF-5, 96 h
Monilinia laxa [5] = assay: Fungitoxicity against Monilinia laxa MF-1 assessed as diameter of mycelial colony measured at 25 degC after 4 days; type: functional
Monilinia laxa [6] = assay: Resistance factor, ratio of EC50 for Monilinia laxa MLK6 to EC50 for wild type Monilinia laxa K2; type: functional
Monilinia laxa [7] = assay: Fungitoxicity against Monilinia laxa MF-7 assessed as diameter of mycelial colony measured at 25 degC after 4 days; type: functional
Monilinia laxa [8] = assay: Fungitoxicity against Monilinia laxa MF-6 assessed as diameter of mycelial colony measured at 25 degC after 4 days; type: functional
Monilinia laxa [9] = assay: Fungitoxicity against highly fenhexamid resistant Monilinia laxa MF-2 assessed as reduction in mycelial growth measured at 25 degC after 4 days; type: functional, organism-based; settings: MF-2, 96 h
Monilinia laxa [10] = assay: Fungitoxicity against Monilinia laxa MF-20 assessed as diameter of mycelial colony measured at 25 degC after 4 days; type: functional
Monilinia laxa [11] = assay: Fungitoxicity against moderately fenhexamid resistant Monilinia laxa MF-1 assessed as reduction in mycelial growth measured at 25 degC after 4 days; type: functional, organism-based; settings: MF-1, 96 h
Monilinia laxa [12] = assay: Fungitoxicity against wild type Monilinia laxa K2 assessed as reduction in mycelial growth measured at 25 degC after 4 days; type: functional, organism-based; settings: K2, 96 h
Monilinia laxa [13] = assay: Fungitoxicity against Monilinia laxa MF-19 assessed as diameter of mycelial colony measured at 25 degC after 4 days; type: functional
Monilinia laxa [14] = assay: Resistance factor, ratio of EC50 for Monilinia laxa MF-19 to EC50 for wild type Monilinia laxa K2; type: functional
Monilinia laxa [15] = assay: Fungitoxicity against Monilinia laxa MLBO7 assessed as diameter of mycelial colony measured at 25 degC after 4 days; type: functional
Monilinia laxa [16] = assay: Fungitoxicity against moderately fenhexamid resistant Monilinia laxa MF-8 assessed as reduction in mycelial growth measured at 25 degC after 4 days; type: functional, organism-based; settings: MF-8, 96 h
Monilinia laxa [17] = assay: Resistance factor, ratio of EC50 for Monilinia laxa MF-4 to EC50 for wild type Monilinia laxa K2; type: functional
Monilinia laxa [18] = assay: Resistance factor, ratio of EC50 for Monilinia laxa MLC2 to EC50 for wild type Monilinia laxa K2; type: functional
Monilinia laxa [19] = assay: Resistance factor, ratio of EC50 for Monilinia laxa MF-3 to EC50 for wild type Monilinia laxa K2; type: functional
Monilinia laxa [20] = assay: Fungitoxicity against Monilinia laxa MLK12 assessed as diameter of mycelial colony measured at 25 degC after 4 days; type: functional
Monilinia laxa [21] = assay: Fungitoxicity against Monilinia laxa MF-8 assessed as diameter of mycelial colony measured at 25 degC after 4 days; type: functional
Monilinia laxa [22] = assay: Resistance factor, ratio of EC50 for Monilinia laxa MF-1 to EC50 for wild type Monilinia laxa K2; type: functional
Monilinia laxa [23] = assay: Fungitoxicity against moderately fenhexamid resistant Monilinia laxa MF-22 assessed as reduction in mycelial growth measured at 25 degC after 4 days; type: functional, organism-based; settings: MF-22, 96 h
Monilinia laxa [24] = assay: Fungitoxicity against Monilinia laxa MLX2 assessed as diameter of mycelial colony measured at 25 degC after 4 days; type: functional
Monilinia laxa [25] = assay: Resistance factor, ratio of EC50 for Monilinia laxa MF-20 to EC50 for wild type Monilinia laxa K2; type: functional
Monilinia laxa [26] = assay: Resistance factor, ratio of EC50 for Monilinia laxa MF-22 to EC50 for wild type Monilinia laxa K2; type: functional
Monilinia laxa [27] = assay: Resistance factor, ratio of EC50 for Monilinia laxa MLX2 to EC50 for wild type Monilinia laxa K2; type: functional
Monilinia laxa [28] = assay: Resistance factor, ratio of EC50 for Monilinia laxa MF-6 to EC50 for wild type Monilinia laxa K2; type: functional
Monilinia laxa [29] = assay: Fungitoxicity against Monilinia laxa MF-22 assessed as diameter of mycelial colony measured at 25 degC after 4 days; type: functional
Monilinia laxa [30] = assay: Resistance factor, ratio of EC50 for Monilinia laxa MLP2 to EC50 for wild type Monilinia laxa K2; type: functional
Monilinia laxa [31] = assay: Fungitoxicity against Monilinia laxa MLK6 assessed as diameter of mycelial colony measured at 25 degC after 4 days; type: functional
Monilinia laxa [32] = assay: Resistance factor, ratio of EC50 for Monilinia laxa MF-15 to EC50 for wild type Monilinia laxa K2; type: functional
Monilinia laxa [33] = assay: Resistance factor, ratio of EC50 for Monilinia laxa MF-5 to EC50 for wild type Monilinia laxa K2; type: functional
Monilinia laxa [34] = assay: Fungitoxicity against Monilinia laxa MF-5 assessed as diameter of mycelial colony measured at 25 degC after 4 days; type: functional
Monilinia laxa [35] = assay: Resistance factor, ratio of EC50 for Monilinia laxa MF-2 to EC50 for wild type Monilinia laxa K2; type: functional
Monilinia laxa [36] = assay: Fungitoxicity against Monilinia laxa MLC2 assessed as diameter of mycelial colony measured at 25 degC after 4 days; type: functional
Monilinia laxa [37] = assay: Resistance factor, ratio of EC50 for Monilinia laxa MLBO7 to EC50 for wild type Monilinia laxa K2; type: functional
Monilinia laxa [38] = assay: Fungitoxicity against highly fenhexamid resistant Monilinia laxa MF-3 assessed as reduction in mycelial growth measured at 25 degC after 4 days; type: functional, organism-based; settings: MF-3, 96 h
Monilinia laxa [39] = assay: Resistance factor, ratio of EC50 for Monilinia laxa MLK12 to EC50 for wild type Monilinia laxa K2; type: functional
Monilinia laxa [40] = assay: Fungitoxicity against Monilinia laxa MF-4 assessed as diameter of mycelial colony measured at 25 degC after 4 days; type: functional
Monilinia laxa [41] = assay: Fungitoxicity against Monilinia laxa MF-15 assessed as diameter of mycelial colony measured at 25 degC after 4 days; type: functional
Monilinia laxa [42] = assay: Fungitoxicity against Monilinia laxa MF-2 assessed as diameter of mycelial colony measured at 25 degC after 4 days; type: functional
Monilinia laxa [43] = assay: Resistance factor, ratio of EC50 for Monilinia laxa MF-8 to EC50 for wild type Monilinia laxa K2; type: functional
Monilinia laxa [44] = assay: Fungitoxicity against Monilinia laxa MLP2 assessed as diameter of mycelial colony measured at 25 degC after 4 days; type: functional
Monilinia laxa [45] = assay: Resistance factor, ratio of EC50 for Monilinia laxa MF-7 to EC50 for wild type Monilinia laxa K2; type: functional
Monilinia laxa [46] = assay: Fungitoxicity against Monilinia laxa K2 assessed as diameter of mycelial colony measured at 25 degC after 4 days; type: functional
Monilinia laxa [47] = assay: Fungitoxicity against Monilinia laxa MF-3 assessed as diameter of mycelial colony measured at 25 degC after 4 days; type: functional

COC(=O)Nc1nc2ccccc2[nH]1 [CARBENDAZIM]
EC50 (Monilinia laxa [1]): 0.2 µg/mL (≈ 1.05 µM)
EC50 (Monilinia laxa [2]): 0.3 µg/mL (≈ 1.57 µM)
EC50 (Monilinia laxa [3]): 0.2 µg/mL (≈ 1.05 µM)
EC50 (Monilinia laxa [4]): 0.5 µg/mL (≈ 2.62 µM)

CC1(C(=O)Nc2ccc(O)c(Cl)c2Cl)CCCCC1 [FENHEXAMID]
Activity (Monilinia laxa [5]): 50 mm
Ratio EC50 (Monilinia laxa [6]): 1.2
Activity (Monilinia laxa [7]): 55 mm
Activity (Monilinia laxa [8]): 56 mm
EC50 (Monilinia laxa [9]): 11.1 µg/mL (≈ 36.7 µM)
Activity (Monilinia laxa [10]): 55 mm
EC50 (Monilinia laxa [11]): 2.2 µg/mL (≈ 7.28 µM)
EC50 (Monilinia laxa [12]): 0.1 µg/mL (≈ 0.331 µM)
Activity (Monilinia laxa [13]): 55 mm
Ratio EC50 (Monilinia laxa [14]): 43
Activity (Monilinia laxa [15]): 60 mm
EC50 (Monilinia laxa [16]): 5.8 µg/mL (≈ 19.2 µM)
EC50 (Monilinia laxa [1]): 4 µg/mL (≈ 13.2 µM)
Ratio EC50 (Monilinia laxa [17]): 40
Ratio EC50 (Monilinia laxa [18]): 3.7
Ratio EC50 (Monilinia laxa [19]): 75
EC50 (Monilinia laxa [2]): 2.3 µg/mL (≈ 7.61 µM)
Activity (Monilinia laxa [20]): 55 mm
Activity (Monilinia laxa [21]): 58 mm
Ratio EC50 (Monilinia laxa [22]): 23
EC50 (Monilinia laxa [23]): 3.7 µg/mL (≈ 12.2 µM)
Activity (Monilinia laxa [24]): 59 mm
Ratio EC50 (Monilinia laxa [25]): 34
Ratio EC50 (Monilinia laxa [26]): 37
EC50 (Monilinia laxa [3]): 5.8 µg/mL (≈ 19.2 µM)
Ratio EC50 (Monilinia laxa [27]): 1.1
Ratio EC50 (Monilinia laxa [28]): 58
Activity (Monilinia laxa [29]): 56 mm
EC50 (Monilinia laxa [4]): 6.9 µg/mL (≈ 22.8 µM)
Ratio EC50 (Monilinia laxa [30]): 0.3
Activity (Monilinia laxa [31]): 52 mm
Ratio EC50 (Monilinia laxa [32]): 31
Ratio EC50 (Monilinia laxa [33]): 70
Activity (Monilinia laxa [34]): 57 mm
Ratio EC50 (Monilinia laxa [35]): 111
Activity (Monilinia laxa [36]): 49 mm
Ratio EC50 (Monilinia laxa [37]): 0.4
EC50 (Monilinia laxa [38]): 7.4 µg/mL (≈ 24.5 µM)
Ratio EC50 (Monilinia laxa [39]): 2.2
Activity (Monilinia laxa [40]): 57 mm
Activity (Monilinia laxa [41]): 56 mm
Activity (Monilinia laxa [42]): 54 mm
Ratio EC50 (Monilinia laxa [43]): 58
Activity (Monilinia laxa [44]): 60 mm
Ratio EC50 (Monilinia laxa [45]): 22
Activity (Monilinia laxa [46]): 57 mm
Activity (Monilinia laxa [47]): 60 mm

CC(Cc1ccc(C(C)(C)C)cc1)CN1C[C@@H](C)O[C@@H](C)C1 (stereo partly specified) [FENPROPIMORPH]
EC50 (Monilinia laxa [9]): 0.18 µg/mL (≈ 0.593 µM)
EC50 (Monilinia laxa [11]): 1 µg/mL (≈ 3.3 µM)
EC50 (Monilinia laxa [12]): 0.14 µg/mL (≈ 0.461 µM)
EC50 (Monilinia laxa [16]): 0.3 µg/mL (≈ 0.989 µM)
EC50 (Monilinia laxa [1]): 0.12 µg/mL (≈ 0.395 µM)
EC50 (Monilinia laxa [2]): 0.1 µg/mL (≈ 0.33 µM)
EC50 (Monilinia laxa [23]): 0.5 µg/mL (≈ 1.65 µM)
EC50 (Monilinia laxa [3]): 1 µg/mL (≈ 3.3 µM)
EC50 (Monilinia laxa [4]): 0.15 µg/mL (≈ 0.494 µM)
EC50 (Monilinia laxa [38]): 0.11 µg/mL (≈ 0.362 µM)

N#Cc1c[nH]cc1-c1cccc2c1OC(F)(F)O2 [FLUDIOXONIL]
EC50 (Monilinia laxa [9]): 0.03 µg/mL (≈ 0.121 µM)
EC50 (Monilinia laxa [11]): 0.02 µg/mL (≈ 0.0806 µM)
EC50 (Monilinia laxa [12]): 0.01 µg/mL (≈ 0.0403 µM)
EC50 (Monilinia laxa [16]): 0.05 µg/mL (≈ 0.201 µM)
EC50 (Monilinia laxa [1]): 0.03 µg/mL (≈ 0.121 µM)
EC50 (Monilinia laxa [2]): 0.01 µg/mL (≈ 0.0403 µM)
EC50 (Monilinia laxa [23]): 0.02 µg/mL (≈ 0.0806 µM)
EC50 (Monilinia laxa [3]): 0.02 µg/mL (≈ 0.0806 µM)
EC50 (Monilinia laxa [4]): 0.01 µg/mL (≈ 0.0403 µM)
EC50 (Monilinia laxa [38]): 0.01 µg/mL (≈ 0.0403 µM)

C[Si](Cn1cncn1)(c1ccc(F)cc1)c1ccc(F)cc1 [FLUSILAZOLE]
EC50 (Monilinia laxa [9]): 0.1 µg/mL (≈ 0.317 µM)
EC50 (Monilinia laxa [11]): 0.2 µg/mL (≈ 0.634 µM)
EC50 (Monilinia laxa [12]): 0.1 µg/mL (≈ 0.317 µM)
EC50 (Monilinia laxa [16]): 0.2 µg/mL (≈ 0.634 µM)
EC50 (Monilinia laxa [1]): 0.1 µg/mL (≈ 0.317 µM)
EC50 (Monilinia laxa [2]): 0.2 µg/mL (≈ 0.634 µM)
EC50 (Monilinia laxa [23]): 0.4 µg/mL (≈ 1.27 µM)
EC50 (Monilinia laxa [3]): 0.3 µg/mL (≈ 0.951 µM)
EC50 (Monilinia laxa [4]): 0.1 µg/mL (≈ 0.317 µM)
EC50 (Monilinia laxa [38]): 0.1 µg/mL (≈ 0.317 µM)
